The values below come from BindingDB's records for doi:10.1021/jm100158v (University of California, 2010).

The Ki is a measure of affinity in units of concentration, obtained from inhibition or displacement. A low value points to tighter binding.

The nature of the test: Inhibition of Escherichia coli K12 ADCS by spectrophotometry.

Take `Cc1ccc(C(=O)N[C@@H](CCCCNC(=O)c2cccc(OCC(=O)O)c2)C(=O)N[C@@H](Cc2cccc(Cl)c2)C(N)=O)c([N+](=O)[O-])c1O` [2-(3-((S)-6-((S)-1-amino-3-(3-chlorophenyl)-1-oxopropan-2-ylamino)-5-(3-hydroxy-4-methyl-2-nitrobenzamido)-6-oxohexylcarbamoyl)phenoxy)acetic acid]: the affinity corresponds to a Ki of 770 µM.
